Results as given in patent US11779597B2, “Method of treating Parkinson's and other neurodegenerative diseases” (Vector Vitale IP LLC, priority 2019, dated 2023).

Legend:
normal human fibroblasts = experiment: Metabolic activity of cells (MTT assay); format: cell-based; details: 72 hours, control = 100% of living cells
Protocol: In vitro assessment of the effects of E2+^85Rbe on metabolic activity of normal human fibroblasts (MTT assay).
Proliferative and metabolic activity of cells was determined by the colorimetric method.
The metabolic activity of the cells (i.e., the number of living cells) was assessed by MTT staining.
24 hours after the last reagent, the cells were seeded at a concentration of 1×10^4 cells/well in wells of a 96-well plate in complete DMEM nutrient medium with 10% FBS and […]. The cells were cultured in a humidified atmosphere at 5% CO2 and 37° C. for 24 hours. After 24 hours, various doses of experimental substances were added to the respective wells. The cells were incubated at 37° C. and 5% CO2 for an additional 72 hours.
Upon completion of the incubation with the preparations, the proliferative and metabolic activity of the cells in the experiment was evaluated by the colorimetric method by staining MTT cells:
10 μl of the MTT solution (5 mg/ml of the dye in phosphate-buffered saline) was added to each well of the plate; the plate was incubated in a CO2 incubator at 37° C. for 3 hours. After that, the medium was removed from the wells, and the formed tetraformazan crystals were dissolved in 100 μl of dimethylsulfoxide.
When MTT was used, the results were evaluated using a multi-well spectrophotometer at an excitation wavelength of 540 nm. The percentage of viable cells was calculated by the formula: IR=(A 540(experiment)/A540(control))×100%.

[1] = system: human T-lymphocytes (CD3+); details: cited from earlier work
[2] = according to the published data

Cc1ccc(S(=O)(=O)[N-]c2ccccc2NC(=O)c2ccccc2)cc1.[Rb+] [E2+Rb reference drug]
Metabolic activity of cells, % (normal human fibroblasts; 2.5 μg/ml): 128.2 ± 8.3% | Metabolic activity of cells, % (normal human fibroblasts; 5 μg/ml): 103.4 ± 9.3% | Metabolic activity of cells, % (normal human fibroblasts; 10 μg/ml): 104.6 ± 14.2% | Metabolic activity of cells, % (normal human fibroblasts; 20 μg/ml): 96.8 ± 9.8% | Metabolic activity of cells, % (normal human fibroblasts; 38 μg/ml): 98.8 ± 7.1% | Metabolic activity of cells, % (normal human fibroblasts; 75 μg/ml): 97.7 ± 7.5% | Metabolic activity of cells, % (normal human fibroblasts; 150 μg/ml): 99.3 ± 3.2%

[Cl-].[Cl-].[Zn+2] [zinc chloride]
proliferation of unstimulated T-cells [1, 2]: has no effect | costimulatory effect on T-cell proliferation ([1]; published data): costimulatory effects

[Cl-].[Rb+] [rubidium chloride]
proliferation of both resting and activated lymphocytes [1, 2]: inhibitory effect
